Assays:
[1] = system: STING; experiment: Time course of STING puncta, signaling and degradation in GFP-STING MEF and THP1 cells; assay type: cell-based
Source text: (§1) Microscopy. […] In STING degradation assay, LysoTracker Red DND-99 (Thermo Scientific) was used to stain lysosomes in live cells. […] Samples were mounted in prolong gold antifade with Dapi stain (Thermo Scientific) and imaged using a Zeiss 700 confocal laser scanning microscope with a 63× oil objective. ImageJ was used to quantify co-localization by Pearson's correlation coefficient. Data are representative of at least twenty cells.
Western blot analysis. […] Briefly, cells were lysed in SDS sample buffer (with protease and phosphatase inhibitor cocktail) and heated for denaturation. […] Electro transfer was performed using 100 V for 60 min on ice. After transfer, the membrane was blocked either in 5% non-fat milk or BSA (phosphorylated protein) for 1 h at room temperature, and incubated with primary antibody overnight at 4° C. HRP-linked secondary antibody (Bio-Rad) was used for 1 h at room temperature before detection on X-ray film (GE Healthcare). Membrane was stripped in stripping buffer for 30 min and reused for […] (Sigma Aldrich) detection.
(§2) RT-qPCR. Total RNAs were extracted from cells or human tissues by using RNeasy mini kit (QIAGEN). RNA quantity and quality were confirmed using NanoDrop (DeNovix DS-11). Genomic DNA was removed and cDNA was synthesized using an iScript™ gDNA clear cDNA synthesis kit (Bio-Rad). Bio-Rad SoAdvanced™ universal SYBR green supermix and CFX connect real-time system were used for PCR analysis. Results were corrected by β-actin or GAPDH. DNA primers are listed as follows: • Mouse ifn-β: […]

[2] = system: resected human tissues (squamous cell carcinoma from the base of tongue, cervical tumor tissues, sentinel lymph node); experiment: STING activation in freshly resected human tissues; conditions: ex vivo injection, 24 h at 37° C.; cGAMP 80 ng, PC7A 50 μg
Source text: as §2

[3] = system: STING R232H variant in THP1 cells; experiment: IFN-β-Luc expression in THP1 cells harboring STING R232H; assay type: cell-based, human
Source text: (§3) WT or R232H THP-1 reporter cells were purchased from Invitrogen.

[4] = system: mutant STING-GFP in HEK293T cells; experiment: Downstream STING activation in HEK293T cells transfected with mutant STING plasmids; assay type: cell-based, human
Source text: as §3, §1, §2

[5] = system: B16-F10 melanoma tumor model; experiment: Interferon-stimulated gene expression in B16-F10 tumor-bearing mice; assay type: in vivo, mouse
Protocol: RT-qPCR. […] Results were corrected by β-actin or GAPDH.
Mice were subcutaneously inoculated with B16F10 melanoma cells (1.0×10^5) or TC-1 cells (1.0×10^5) into the right flank. […] Mice were euthanized one-day post-injection, and tumors and draining lymph nodes were collected. Total RNAs were extracted by TRIzol (Invitrogen), and the expressions of interferon-stimulated genes (ifn-β, cxcl10, tnf-α, and irf7) were measured via RT-qPCR.

[6] = system: TC-1 tumors; experiment: Tumor therapy, TC-1 tumor model; assay type: in vivo, mouse; conditions: TC-1, intratumoral, four injections, versus 5% glucose
Protocol: Tumor therapy experiments. Mice were subcutaneously inoculated with MC38 cells (1.0×10^6) or TC-1 cells (1.0×10^5) into the right flank. Tumor size was measured every other day via a digital caliper, and tumor volume was calculated as 0.5×length×width^2. […] Mice were injected 3× in MC38 model and 4× in TC-1 model with treatments spaced 4 d apart. Mice were euthanized at a tumor burden endpoint of 2,000 mm^3.

Q: `Nc1nc2c(ncn2[C@@H]2O[C@@H]3COP(=O)(O)OC4C(O)[C@H](n5cnc6c(N)ncnc65)O[C@@H]4COP(=O)(O)OC2C3O)c(=O)[nH]1` (stereo partly drawn) [cGAMP, cyclic guanosine monophosphate-adenosine monophosphate] was tested. Which “time of peak immune response after stimulation” value [1] did it give?
A: Its value is “around 6 h”.

Q: And the “time to STING degradation” value ([1]; STING-GFP MEFs)?
A: The value was ≤ 12 h.

Q: What about the “p-TBK1/p-IRF3 production and proinflammatory cytokine expression” value ([1]; in the presence of brefeldin A (BFA, 10 μM)) of the same compound?
A: The value was “fail to trigger p-TBK1/p-IRF3 production and proinflammatory cytokine expression”.

Q: What about the “ifn-β and cxcl10 mRNA expression over control” value [2] of the same compound?
A: Its value is “marginal effect”.

Q: And the IFN-β-Luc expression [3]?
A: The IFN-β-Luc expression was “abrogated”.

Q: And the “condensate structures, TBK1 phosphorylation and ifn-β/cxcl10 expression” value [4]?
A: The value was “did not impact cGAMP-mediated STING activation”.

Q: And the “STING activation in draining lymph nodes” value ([5]; intratumoral injection, cGAMP high dose 2.5 μg)?
A: The value was “minimal STING activation”.

Q: And the “interferon-stimulated gene expression (ifn-β, cxcl10, tnf-α, irf7) in tumor” value ([5]; single intratumoral injection, 24 hours, PC7A 50 μg, cGAMP low dose 0.5 μg)?
A: The value was “failed to induce interferon-stimulated gene expressions”.

Q: What about the “extension of median survival” value [6] of the same compound?
A: Its value is 4 days.

Source: patent US12036319B2, “Polyvalent sting activating compositions and uses thereof” (The Board of Regents of the University of Texas System, priority 2020, dated 2024)
